From PubChem BioAssay (NCI)
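Compound exposure: 48 hours, 5 concentrations, 96-well plates. TGI: concentration producing complete growth inhibition.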

Columns and labels:
Assay in all cases: growth of human tumour cells (NCI), 48 h
SW-620 colon = tested on: SW-620 colon
SK-OV-3 ovarian = tested on: SK-OV-3 ovarian
COLO 205 colon = tested on: COLO 205 colon
T-47D breast = tested on: T-47D breast
HOP-92 NSCLC = tested on: HOP-92 NSCLC
MDA-N = tested on: MDA-N
SK-MEL-2 melanoma = tested on: SK-MEL-2 melanoma
UACC-257 melanoma = tested on: UACC-257 melanoma
HT29 colon = tested on: HT29 colon
A549 NSCLC = tested on: A549 NSCLC
SF-539 CNS = tested on: SF-539 CNS
HS 578T breast = tested on: HS 578T breast
K-562 leukemia = tested on: K-562 leukemia
SK-MEL-28 melanoma = tested on: SK-MEL-28 melanoma
MOLT-4 leukemia = tested on: MOLT-4 leukemia
A498 renal = tested on: A498 renal
SF-268 CNS = tested on: SF-268 CNS
OVCAR-4 ovarian = tested on: OVCAR-4 ovarian
CAKI-1 renal = tested on: CAKI-1 renal
MALME-3M melanoma = tested on: MALME-3M melanoma
786-0 renal = tested on: 786-0 renal
SF-295 CNS = tested on: SF-295 CNS
RPMI-8226 leukemia = tested on: RPMI-8226 leukemia
SNB-19 CNS = tested on: SNB-19 CNS
DU-145 prostate = tested on: DU-145 prostate
OVCAR-3 ovarian = tested on: OVCAR-3 ovarian
HCT-116 colon = tested on: HCT-116 colon
UO-31 renal = tested on: UO-31 renal
HOP-62 NSCLC = tested on: HOP-62 NSCLC
OVCAR-8 ovarian = tested on: OVCAR-8 ovarian
NCI-H226 lung = tested on: NCI-H226 lung
SNB-75 CNS = tested on: SNB-75 CNS
NCI-H23 lung = tested on: NCI-H23 lung
NCI/ADR-RES ovarian = tested on: NCI/ADR-RES ovarian
NCI-H460 lung = tested on: NCI-H460 lung
HCC-2998 colon = tested on: HCC-2998 colon
LOX IMVI melanoma = tested on: LOX IMVI melanoma
MCF7 breast = tested on: MCF7 breast
PC-3 prostate = tested on: PC-3 prostate
CCRF-CEM leukemia = tested on: CCRF-CEM leukemia
OVCAR-5 ovarian = tested on: OVCAR-5 ovarian
HCT-15 colon = tested on: HCT-15 colon
EKVX NSCLC = tested on: EKVX NSCLC
ACHN renal = tested on: ACHN renal
IGROV1 ovarian = tested on: IGROV1 ovarian
MDA-MB-435 = tested on: MDA-MB-435
HL-60(TB) leukemia = tested on: HL-60(TB) leukemia
BT-549 breast = tested on: BT-549 breast
KM12 colon = tested on: KM12 colon
SN12C renal = tested on: SN12C renal
M14 melanoma = tested on: M14 melanoma
TK-10 renal = tested on: TK-10 renal
UACC-62 melanoma = tested on: UACC-62 melanoma
U251 CNS = tested on: U251 CNS
NCI-H522 lung = tested on: NCI-H522 lung
MDA-MB-231 breast = tested on: MDA-MB-231 breast
SR leukemia = tested on: SR leukemia
SK-MEL-5 melanoma = tested on: SK-MEL-5 melanoma
RXF 393 renal = tested on: RXF 393 renal

Measured: TGI

CC(C)=CCC[C@@H](C)C1=C(O)C(c2c(I)c(=O)n(C)c(=O)n2C)=C(C)C(=O)C1=O
not listed: UACC-62 melanoma | U251 CNS | NCI-H522 lung | MDA-MB-231 breast | SR leukemia | SK-MEL-5 melanoma | RXF 393 renal
> 100 µM: all other assays above

O=[N+]([O-])c1ccc(N=Nc2c(O)ccc3cc(S(=O)(=O)O)cc(S(=O)(=O)O)c23)cc1
not listed: SF-539 CNS | NCI-H460 lung | HCC-2998 colon | MCF7 breast | HL-60(TB) leukemia
> 100 µM: all other assays above
